Laboratory results from patent US5914338A, “Heterocyclic compounds and their preparation and use” (Novo Nordisk, priority 1996, dated 1999).
Where a name gives a salt, the structure may show the parent alone. Read-outs that look alike come from different tables or passages of the source.

What was measured:
[1] = target: muscarinic acetylcholine receptors; assay: inhibition of specific binding of ^3 H-Oxotremorine-M (^3 H-Oxo), fresh rat cortex; parameters: species or system rat (male Wistar); conditions: ^3 H-Oxotremorine 1.0 nM, 30 min at 25° C, pH 7.4
Excerpt: The pharmacological properties of the compounds of the invention can be illustrated by determining their capability to inhibit the specific binding of ^3 H-Oxotremorine-M (^3 H-Oxo). Birdsdall N. J. M., Hulme E. C., and Burgen A. S. V. (1980). "The Character of Muscarinic Receptors in Different Regions of the Rat Brain". Proc. Roy. Soc. London (Series B) 207,1.
^3 H-Oxo labels muscarinic receptor in the CNS (with a preference for agonist domains of the receptors). Three different sites are labelled by ^3 H-Oxo. […] Using the present experimental conditions only the high and medium affinity sites are determined.
The inhibitory effects of compounds on ^3 H-Oxo binding reflects the affinity for muscarinic acetylcholine receptors.
All preparations are performed at 0-4° C. unless otherwise indicated. Fresh cortex (0.1-1 g) from male Wistar rats (150-250 g) is homogenized for 5-10 s in 10 ml 20 mM Hepes pH: 7.4, with an Ultra-Turrax homogenizer. The homogenizer is rinsed with 10 ml of buffer and the combined suspension centrifuged for 15 min. at 40,000×g. The pellet is washed three times with buffer. In each step the pellet is homogenized as before in 2×10 ml of buffer and centrifuged for 10 min. at 40,000×g.
The final pellet is homogenized in 20 mM Hepes pH: 7.4 (100 ml per g of original tissue) and used for binding assay. Aliquots of 0.5 ml is added 25 μl of test solution and 25 μl of ^3 H-Oxotremorine (1.0 nM, final concentration) mixed and incubated for 30 min. at 25° C. Non-specific is determined in triplicate using arecoline (1 μg/ml, final concentration) as the test substance. After incubation samples are added 5 ml of ice-cold buffer and poured directly onto Whatman GF/C glass fiber filters under suction and immediately washed 2 times with 5 ml of ice-cold buffer. The amount of radioactivity on the filters are determined by conventional liquid scintillation counting. Specific binding is total binding minus non specific binding.
Test substances are dissolved in 10 ml water (if necessary heated on a steambath for less than 5 min.) at a concentration of 2.2 mg/ml. 25-75% inhibition of specific binding must be obtained before calculation of IC50.
The test value will be given as IC50 (the concentration (nM) of the test substance which inhibits the specific binding of ^3 H-Oxo by 50%) .
(§1) IC50 =(applied test substance concentration) x(Cx /Co
(§2) where Co is specific binding in control assays and Cx is the specific binding in the test assay. (The calculations assume normal mass-action kinetics).

[2] = target: T1, subtype of muscarinic receptors (M1-site, pirenzepine sensitive site), rat cerebral cortex membranes (Rattus norvegicus, UniProt P08482); assay: inhibition of ^3 H-PRZ (pirenzepine, [N-methyl-^3 H]) binding to rat cerebral cortex membranes; parameters: species or system rat (male Wistar)
T1 construct: Fresh cortex (0.1-1 g) from male Wistar rats (150-200 g) is homogenized; from tissue; host or cells: fresh cerebral cortex membranes of male Wistar rats
T1 sequence (P08482 1-460): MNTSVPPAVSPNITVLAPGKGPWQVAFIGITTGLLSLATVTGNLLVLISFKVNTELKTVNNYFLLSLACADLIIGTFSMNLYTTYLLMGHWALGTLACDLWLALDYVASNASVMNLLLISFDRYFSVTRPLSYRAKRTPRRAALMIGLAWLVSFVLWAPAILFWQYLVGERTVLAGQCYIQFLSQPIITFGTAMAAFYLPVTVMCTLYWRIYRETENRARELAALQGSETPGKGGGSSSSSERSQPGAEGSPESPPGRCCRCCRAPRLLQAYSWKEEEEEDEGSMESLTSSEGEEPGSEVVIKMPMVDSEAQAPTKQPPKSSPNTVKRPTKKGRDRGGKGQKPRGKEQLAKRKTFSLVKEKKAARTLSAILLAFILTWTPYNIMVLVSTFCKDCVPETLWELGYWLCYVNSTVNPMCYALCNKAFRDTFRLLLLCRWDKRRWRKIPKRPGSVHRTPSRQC
Experimental: Furthermore, the pharmacological properties of the compounds of the invention can also be illustrated by determining their capability to inhibit ^3 H-PRZ (pirenzepine, [N-methyl-^3 H]) binding to rat cerebral cortex membranes. Pirenzepine binds selectively to subtype of muscarinic receptors. Historically the type is named the M1 -site, whereas pirenzepine sensitive site would be more appropriate.
All preparations are performed at 0-4° C. unless otherwise indicated. Fresh cortex (0.1-1 g) from male Wistar rats (150-200 g) is homogenized for 5-10 s. in 10 ml 20 mM Hepes pH: 7.4, with an Ultra-Turraxhomogenizer. The homogenizer is rinsed with 2×10 ml of buffer and the combined suspension centrifuged for 15 min at 40,000×g. The pellet is washed three times with buffer. In each step the pellet is homogenized as before in 3×10 ml of buffer and centrifuged for 10 min at 40,000×g.
The final pellet is homogenized in 20 mM Hepes pH: 7.4 (100 ml per g of original tissue) and used for binding assay. Aliquots of 0.5 ml is added 20 μl of test solution and 25 μl of ^3 H-Pirenzepine (1.0 nM, final conc.), mixed and incubated for 60 min at 20° C. Non-specificbinding is determined in triplicate using atropine (1 μg/ml, final conc.) as the test substance. After incubation samples are added 5 ml of ice-cold buffer and poured directly onto Whatman GF/C glass fibre filters under suction and immediately washed 2 times with 5 ml of ice-cold buffer. The amount of radioactivity on the filters are determined by conventional liquid scintillation counting. Specific binding is total binding minus non-specific binding.
Test substances are dissolved in 10 ml water, at a concentration of 0.22 mg/ml. 25-75% inhibition of specific binding must be obtained before calculation of IC50.
The test value will be given as IC50 (the concentration (nM) of the test substance which inhibits the specific binding of ^3 H-PRZ by 50%) .
as §1, §2

[3] = system: M2-sites; conditions: cited from earlier work
[4] = system: M1-sites; conditions: cited from earlier work
[5] = target: muscarinic receptor in the CNS; conditions: read-out: affinity of site labelled by ^3 H-Oxo, cited from earlier work
[6] = ^3 H-Pirenzepine 1.0 nM, rat cortex, 60 min at 20° C, pH 7.4, read-out: ^3 H-PRZ IC50

Structure (SMILES) | IC50 [1] | IC50 [2, 6] | other results
C(#Cc1ccsc1)COc1nsnc1C12CN3CC1C2C3 [Compound 8, 1-(3-[3-(3-Thienyl)-2-propyn-1-yloxy]-1,2,5-thiadiazol-4-yl)-4-azatricyclo[2.2.1.0^2,6]heptane, oxalate] | 8.7 nM | 180 nM | 
C(#Cc1cccnc1)COc1nsnc1C12CN3CC1C2C3 [Compound 11, 1-(3-[3-(3-Pyridyl)-2-propyn-1-yloxy]-1,2,5-thiadiazol-4-yl)-4-azatricyclo[2.2.1.0^2,6]heptane, oxalate] | 6 nM | 400 nM | 
CN1CCN(CC(=O)N2c3ccccc3C(=O)Nc3cccnc32)CC1 [pirenzepine] |  |  | interaction with M2-sites [3]: also interact with M2 -sites; selectivity for M1-sites [4]: selective for M1 -sites
FC(F)(F)CCSc1nsnc1C12CN3CC1C2C3 [Compound 3, 1-(3,3,3-Trifluoropropylthio-1,2,5-thiadiazol-4-yl)-4-azatricyclo[2.2.1.0^2,6]heptane, oxalate] | 14 nM | 245 nM | 
C[N+](C)(C)CC#CCN1CCCC1=O [^3 H-Oxo, ^3 H-Oxotremorine-M] |  |  | Kd ([5]; first (high affinity) site): 1.8 nM; Kd ([5]; second (medium affinity) site): 20 nM; Kd ([5]; third site, not determined under the present conditions): 3000 nM
CCCSc1nsnc1C12CN3CC1C2C3 [Compound 2, 1-(3-Propylthio-1,2,5-thiadiazol-4-yl)-4-azatricyclo[2.2.1.0^2,6]heptane, oxalate] | 4.3 nM |  | IC50 [2]: 100 nM

Continued, in another order:

IC50 [1] | IC50 [2, 6] | Structure (SMILES) | other results
41 nM | 500 nM | N#Cc1ccc(CSc2nsnc2C23CN4CC2C3C4)cc1 [Compound 4, 1-[3-(4-Cyanobenzylthio)-1,2,5-thiadiazol-4-yl]-4-azatricyclo[2.2.1.0^2,6]heptane, oxalate] | 
25 nM | 326 nM | COc1cccc(C#CCOc2nsnc2C23CN4CC2C3C4)c1 [Compound 10, 1-(3-[3-(3-Methoxyphenyl)-2-propyn-1-yloxy]-1,2,5-thiadiazol-4-yl)-4-azatricyclo[2.2.1.0^2,6]heptane, hydrochloride] | 
17 nM | 93 nM | Fc1ccc(C#CCOc2nsnc2C23CN4CC2C3C4)cc1 [Compound 6, 1-(3-[3-(4-Fluorophenyl)-2-propynyl-1-oxy]-1,2,5-thiadiazol-4-yl)-4-azatricyclo[2.2.1.0^2,6]heptane, oxalate] | 
15 nM | 284 nM | C(#Cc1cccs1)COc1nsnc1C12CN3CC1C2C3 [Compound 9, 1-(3-[3-(2-Thienyl)-2-propyn-1-yloxy]-1,2,5-thiadiazol-4-yl)-4-azatricyclo[2.2.1.0^2,6]heptane, oxalate] | 
26 nM | 183 nM | C(#Cc1ccccc1)COc1nsnc1C12CN3CC1C2C3 [Compound 7, 1-[3-(3-Phenyl-2-propynyl-1-oxy)-1,2,5-thiadiazol-4-yl]-4-azatricyclo[2.2.1.0^2,6]heptane, oxalate] | 
